# Assay results as given in US20090062351A1, “Benzoyl amino pyridyl carboxylic acid derivatives useful as glucokinase (glk) activators” (priority 2003, published 2009).
# Assays:
# [1] = Plasma levels following oral administration to rats; format: in vivo; conditions: rat, including both bound and free, normalised dose of 1 mg compound per kilogram body weight
# Protocol: Planetary Milled compounds [15 mins, 500 rpm, 5 Zirconium Balls, in a Puluerisette 7 Mill (Glen Creston Ltd, Stanmore, Middlesex, UK)] were suspended in 0.5% HPMC Tween and dosed to High Fat Fed (Research Diets, D12451, ad lib feeding 14 days) Female Alderley Park Zucker or Alderley Park Wistar rats at rate of 5 mls/kg, at doses between 0.3 and 10 mg/kg by oral gavage.
# Samples of plasma were obtained either by conscious blood sampling or terminal blood sampling as follows:
# Conscious blood sampling (for compound level or blood chemistry)—Intravenous blood samples were taken from tail vein using 600 μl Starstedt Multivette (EDTA) and 22 G needle at the required time point. […]
# The reconstituted samples were then analysed using high performance liquid chromatography with tandem mass spectrometry detection (HPLC-MS-MS)”. […]
# The concentration of test samples was determined from the ratio of the peak height of the test sample to the peak height of the internal standard. The concentration of the test sample was calculated with reference to a standard curve relating the ratio to the concentration prepared by using known concentrations of test sample added to samples of rat plasma using (3-isopropoxy-5-benzyoxy-benzoyl)amino pyridine 3-carboxylic acid as an internal standard, treated as described above.
# glucokinase (GLK) = target: T1, glucokinase (GLK) (Homo sapiens, UniProt P35557); assay: biochemical
# T1 sequence (P35557 1-466 isoform P35557-2): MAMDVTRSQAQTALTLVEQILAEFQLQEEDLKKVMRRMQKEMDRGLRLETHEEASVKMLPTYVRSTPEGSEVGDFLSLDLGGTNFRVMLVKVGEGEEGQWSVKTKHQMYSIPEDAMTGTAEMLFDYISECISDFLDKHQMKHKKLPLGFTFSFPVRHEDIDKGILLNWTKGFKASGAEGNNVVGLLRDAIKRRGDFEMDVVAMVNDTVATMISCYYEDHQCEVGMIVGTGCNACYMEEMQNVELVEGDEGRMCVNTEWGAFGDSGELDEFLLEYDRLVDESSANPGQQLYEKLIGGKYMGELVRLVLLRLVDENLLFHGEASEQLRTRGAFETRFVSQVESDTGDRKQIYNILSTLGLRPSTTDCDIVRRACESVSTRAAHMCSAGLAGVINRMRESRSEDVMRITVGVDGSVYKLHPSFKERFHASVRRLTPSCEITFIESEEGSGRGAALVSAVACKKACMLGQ
# [2] = Plasma protein binding by equilibrium dialysis; format: in vitro ADME; conditions: rat, 37° C., pH 7.4, read-out: % free in plasma
# Protocol: The plasma protein binding of compounds was measured using the equilibrium dialysis technique (W. Lindner et al, J. Chromatography, 1996, 677, 1-28). Compound was dialysed at a concentration of 20 μM for 18 hours at 37° C. with plasma and isotonic phosphate buffer pH 7.4 (1 ml of each in the dialysis cell). A Spectrum® 20-cell equilibrium dialyser was used together with Teflon, semi-micro dialysis cells and Spectra/Por®2 membrane discs with a molecular weight cut off 12-14000 Dalton, 47 mm (supplied by PerBio Science UK Ltd, Tattenhall, Cheshire). Plasma and buffer samples are removed following dialysis and analysed using HPLCUV/MS (high performance liquid chromatography with UV and mass spec detection) to give the % free level in plasma.
structure (smiles),measurement,setting,value
"COC[C@H](C)Oc1cc(OCC=C2CCCC2)cc(C(=O)Nc2ccc(C(=O)O)cn2)c1 [Example 2, 6-{[(3-[(2-cyclopentylideneethyl)oxy]-5-{[(1S)-1-methyl-2-(methyloxy)ethyl]oxy}phenyl)carbonyl]amino}pyridine-3-carboxylic acid]",Peak Blood levels,[1],2.2 µM
same,EC50,glucokinase (GLK),78 nM
same,"fraction unbound at 18 h, 20 μM",[2],0.0042
